Results: US20040186022A1, “Enhanced herbicides” (priority 1999, published 2004)

Assays:
[1] = tested on: Turf and Shrub Foliage; conditions: 1, 2, 4 and 7 days after a single foliar application, 5 equals profound desiccation
Excerpt: (§1) The herbicides were applied in the “spray to drip” amount or at a calibrated 20-60 gallons/acre. “Spray to drip” is an uncalibrated application of fluid to foliage, where sufficient spray volume is used to sufficiently saturate the foliage surface until excess fluid begins to drip from the foliage.

[2] = tested on: soybeans; assay: Synergistic relationships: succinic acid + caprylic acid, succinic acid + sodium salicylate, testing soybeans; assay type: in vivo; conditions: 3 days after a single foliar application, soybean Stine 2250
Excerpt: as §1

[3] = tested on: Cotton; conditions: 2 days after a single foliar application
Excerpt: as §1

[4] = tested on: soybeans; assay: Synergistic relationships between succinic acid and caprylic acid at different application rates, testing soybeans; assay type: in vivo; conditions: 2 days after a single foliar application, average of 2 sites, soybean Stine 2250; for Overall Effect: 5 equals profound desiccation
Excerpt: as §1

[5] = Measurement of pH values for test desiccants (Example 55); assay type: physicochemical
[6] = tested on: lambsquarter, velvetleaf, foxtail, nutsedge and potatoes; assay: Succinic acid enhancement of oleic acid/sodium salicylate herbicidal activity (spray to drip); assay type: in vivo
Excerpt: as §1

[7] = tested on: 60 G/a: lambsquarter, foxtail and velvetleaf; spray to drip: snapbeans, corn and tomatoes; assay: Succinic acid enhancement of oleic acid/sodium salicylate herbicidal activity (60 G/a and spray to drip); assay type: in vivo
Excerpt: as §1

[8] = tested on: Turf; assay: Synergistic relationships between succinic acid and caprylic acid (or sodium salicylate), testing turf; assay type: in vivo; conditions: 2 days after a single foliar application, 5 equals profound desiccation
Excerpt: as §1

[9] = tested on: 60 G/a: velvetleaf, black nightshade, redroot pigweed, foxtail and snapbeans; spray to drip: black nightshade, velvetleaf, foxtail and snapbeans; assay: Efficacy of 1.5% succinic acid with oleic, caprylic or pelargonic acid in an emulsification system (Emsorb 6900); assay type: in vivo; parameters: Injury rating, total score for 2 evaluation, Spray to drip / Injury rating, total score for 2 evaluation, Total Rating: scale not given here
Excerpt: as §1

[10] = tested on: mixed weed varieties; assay: Field trial comparisons of caprylic/capric and pelargonic acids on mixed weed varieties (Example 57); assay type: in vivo; conditions: rating 1-5 for each of 2 plots per treatment group, 5 = complete desiccation; grasses (dominant), dandelion, pigweed, plantain and Canadian thistle
Excerpt: as §1

[11] = tested on: mixed weed varieties; Canadian thistle; assay: Field trial comparisons of caprylic/capric and pelargonic acids on mixed weed varieties (Example 58); assay type: in vivo; conditions: rating 1-5 for each of 2 plots per treatment group, 5 = complete desiccation
Excerpt: as §1

[12] = tested on: Redwood pigweed; assay: Field trial comparisons of caprylic/capric and pelargonic acids, redroot pigweed (Example 58); assay type: in vivo; conditions: rating 1-5 for each of 2 plots per treatment group, 5 = complete desiccation
[13] = tested on: 60 G/a: redroot pigweed, velvetleaf, snapbeans, cotton and potatoes; spray to drip: black nightshade, lambsquarter, foxtail and snapbeans; conditions: footnote
Excerpt: as §1

[14] = tested on: 60 G/a: redroot pigweed, foxtail and velvetleaf; spray to drip: foxtail, dry beans and pigweed; assay: Herbicidal activity: caprylic acid and succinic acid +/- ammonium sulfate; assay type: in vivo; conditions: footnote
Excerpt: as §1

[15] = tested on: cotton plants, DeltaPine NuCotn 33-b, open boll; assay: Synergistic relationships between 5% caprylic/capric (c/c) and succinic acid: desiccation of cotton plants; assay type: in vivo; conditions: footnote
Excerpt: (§2) The herbicides were applied in the “spray to drip” amount or at a calibrated 20-60 gallons/acre. “Spray to drip” is an uncalibrated application of fluid to foliage, where sufficient spray volume is used to sufficiently saturate the foliage surface until excess fluid begins to drip from the foliage. In general, about 5 to 200 gallons/acre, preferably 20-100 gallons/acre can be effective.

[16] = tested on: cotton (DeltaPine NuCotn 33b), potatoes (Snowden), pigweed, sudan grass, wheat, foxtail, dry beans and velvetleaf; assay: Synergistic relationships between 5% caprylic/capric (c/c) and succinic acid; assay type: in vivo; conditions: footnote
Excerpt: as §2

[17] = tested on: Cotton (DeltaPine NuCotn 33b); assay: Synergistic relationship between caprylic/capric (c/c) and succinic acid as harvest aids, cotton; assay type: in vivo; conditions: footnote; cotton and potatoes
Excerpt: as §2

[18] = tested on: cotton (DeltaPine NuCotn 33b) foliage; assay: Herbicidal activity on cotton foliage: succinic acid and caprylic/capric acid (c/c) combinations; assay type: in vivo; conditions: footnote
Excerpt: as §2

[19] = tested on: 60 G/a: nightshade, pigweed, foxtail barnyard grass, sudan grass and cotton (DeltaPine NuCotn 33b); spray to drip: Kentucky bluegrass, nutsedge, barnyard …; assay: Herbicidal activities: succinic acid and caprylic/capric acid (c/c) combinations; assay type: in vivo; conditions: footnote
Excerpt: as §2

[20] = tested on: 40 G/a: crab grass, chickweed and common lambsquarter; 60 G/a: redtop, pigweed, foxtail; spray to drip: barnyard grass, foxtail, sudan grass and nutsedge; assay: Herbicidal combinations of caprylic/capric (c/c) or pelargonic acid with equimolar succinic acid and ammonium succinate, on weed varieties; assay type: in vivo; conditions: footnote
[21] = tested on: Kentucky bluegrass, barnyard grass, crab grass, pigweed, redtop, nutsedge, wheat and foxtail; assay: Enhancement of RoundUp Ultra (+/- ammonium sulfate) by succinic acid, 1 pint/acre, no surfactant; assay type: in vivo; conditions: footnote
Excerpt: as §1

[22] = tested on: barnyard grass, green foxtail, sudan grass and pigweed; assay: Enhancement of RoundUp Ultra (+/- ammonium sulfate) by succinic acid, 1 pint/acre, with Sylgard 309; assay type: in vivo; conditions: footnote
Excerpt: as §1

[23] = tested on: sudan grass, green foxtail, barnyard grass and pigweed; assay: Enhancement of RoundUp Ultra (+/- ammonium sulfate) by succinic acid, 1 quart per acre; assay type: in vivo; conditions: footnote
Excerpt: as §1

[24] = tested on: Turf and Covergrass; assay: Effects of various compounds on caprylic acid, testing turf and covergrass; assay type: in vivo; conditions: 1, 3, 6, 7 and 11 days after a single foliar application at two independent sites, 5 equals profound desiccation
Excerpt: as §1

[25] = tested on: Turf and Shrub Foliage; assay: Effects of various compounds on caprylic acid, testing turf and shrub foliage; assay type: in vivo; conditions: 3, 4, 6 and 7 days after a single foliar application, 5 equals profound desiccation
Excerpt: as §1

[26] = Measurement of pH values for test desiccants (Example 56); assay type: physicochemical

Question: For `O=C(O)CCC(=O)O` [Succinic Acid (2%)], which “Overall effect, 17 evaluations (average)” value [1] is on record?
Answer: 0.24

Question: With `O=C([O-])c1ccccc1O.[Na+]` [Sodium Salicylate (1%)] as the molecule, how does the “Overall effect, 17 evaluations (average)” value [1] read?
Answer: 1.35

Question: And the “Foliage Affected (%)” value [2]?
Answer: 15-20%

Question: And the “Overall Effect” value ([2]; 5 equals profound desiccation)?
Answer: 1.5

Question: Which results are given for `O=C(O)CCC(=O)O` [Succinic Acid (1.0%)]?
Answer: Foliage Affected (%) [3]: No effect; Foliage Affected (%) [4]: 0%; Overall Effect [4]: 0; pH Value [5]: 1.85

Question: With `CCCCCCCC/C=C\CCCCCCCC(=O)O` [2% oleic acid, oleic acid] as the molecule, how does the “Total injury rating (sum over pots and evaluations)” value ([6]; rating 1-5 per pot, two evaluations, 50% acetone, 0.3% Sylgard 309) read?
Answer: 26.4

Question: And the “Injury rating, Average rating per pot” value ([6]; scale 1-5, spray to drip)?
Answer: 2.2

Question: And the “Total Injury rating, Total” value ([7]; 60 G/a plus spray to drip)?
Answer: 45.8

Question: What about the “Total Injury rating, 60 G/a” value ([7]; 60 G/a, lambsquarter, foxtail and velvetleaf, rating 1-5 per pot, two evaluations) of the same molecule?
Answer: 23.5

Question: What about the “Average rating per pot” value ([7]; scale 1-5, 60 G/a and spray to drip) of the same molecule?
Answer: 1.91

Question: With `O=C([O-])c1ccccc1O.[Na+]` [Sodium Salicylate (1.0%)] as the molecule, how does the “Foliage Affected (%)” value [3] read?
Answer: <70%

Question: What about the “Overall Effect” value [8] of the same molecule?
Answer: 1.5

Question: What about the “pH Value” [5] of the same molecule?
Answer: 5.63

Question: Which “Injury rating, total score for 2 evaluation, Total Rating” value ([9]; 60 G/a plus spray to drip) does the source give for `CCCCCCCCC(=O)O` [3% pelargonic, pelargonic acid] here?
Answer: 122.9

Question: And the “Injury rating, total score for 2 evaluation, 60 G/a” value ([9]; 60 G/a, rating 1-5 per pot, 1% Emsorb, 0.3% Hasten)?
Answer: 85.3

Question: What about the “Average rating per pot” value ([9]; scale 1-5) of the same molecule?
Answer: 4.39

Question: What about the “Injury rating, total score for 2 evaluation, Spray to drip” value ([9]; spray to drip) of the same molecule?
Answer: 37.6

Question: What about the “Average injury rating per plot” value [10] of the same molecule?
Answer: 4.175

Question: What about the “Average injury rating per plot” value [11] of the same molecule?
Answer: 4.03

Question: With `CCCCCCCCC(=O)O` [6% pelargonic] as the molecule, how does the “Average injury rating per plot” value [12] read?
Answer: 4.35

Question: Which “Rating of succinic acid alone” value [13] does the source give for `O=C(O)CCC(=O)O` [succinic acid] here?
Answer: Succinic acid, alone, had a rating of zero. Succinic acid was synergistic with oleic, caprylic and pelargonic acids

Question: And the “Rating of succinic acid alone” value ([9]; footnote)?
Answer: Succinic acid, alone, had a rating of zero. Succinic acid was synergistic with oleic, caprylic and pelargonic acids

Question: What about the “Rating of succinic acid alone” value [14] of the same molecule?
Answer: Succinic acid, alone, had a rating of zero. Caprylic acid + succinic acid was synergistic

Question: And the “Rating of succinic acid alone” value [15]?
Answer: Treatment of plants with succinic acid, alone, had a rating of zero

Question: What about the “Rating of succinic acid alone” value [16] of the same molecule?
Answer: Treatment of plants with succinic acid, alone, had a rating of zero

Question: What about the “Rating of succinic acid alone” value [17] of the same molecule?
Answer: Treatment of plants with succinic acid, alone, had a rating of zero

Question: What about the “Rating of succinic acid tested alone” value [18] of the same molecule?
Answer: Since succinic acid tested alone had a rating of zero, caprylic/capric + succinic acid was synergistic

Question: And the “Rating of succinic acid alone” value [19]?
Answer: Since succinic acid, alone had a rating of zero, caprylic/capric + succinic acid was synergistic

Question: And the “Rating of additive tested alone” value [20]?
Answer: Since succinic acid (or ammonium succinate) tested alone had a rating of zero, pelargonic acid (or c/c) + succinic acid (or ammonium succinate) were synergistic. The exception was: 3% pelargonic acid + 1.26% ammonium succinate

Question: And the “Rating of succinic acid tested alone” value [21]?
Answer: Succinic acid tested alone had a rating of zero. RoundUp Ultra, alone or RoundUp Ultra + ammonia sulfate were synergistic with succinic acid

Question: What about the “Rating of succinic acid tested alone” value [22] of the same molecule?
Answer: Succinic acid tested alone had a rating of zero. RoundUp Ultra, alone or RoundUp Ultra + ammonium sulfate were synergistic with succinic acid.

Question: And the “Rating of succinic acid tested alone” value [23]?
Answer: Succinic acid tested alone had a rating of zero. RoundUp Ultra, alone or RoundUp Ultra + ammonium sulfate were synergistic with succinic acid

Question: What does the source list for `CCCCCCCC(=O)O` [Caprylic Acid (1.0%)]?
Answer: Foliage Affected (%) [4]: 22.3%; Overall Effect [4]: 4; Overall Effect [8]: 2; Overall Effect, 10 Evaluations (average) [24]: 2.45; Overall Effect, 29 Evaluations (average) [25]: 1.05; pH Value [5]: 3.93; pH Value [26]: 3.85
